Entries after “also recorded” stand apart in the source; their conditions may differ.
How the values were obtained:
[1] = test system: Obese, Glucose Intolerant Zucker Fatty Rats (fa/fa); assay: Glucose tolerance test in obese, glucose intolerant Zucker Fatty Rats (fa/fa) after oral treatment; assay type: in vivo, rat; conditions: 10 mg/kg once daily by oral gavage in sesame oil, 1 week; 2 g/kg oral glucose after 12 hr fast, serum glucose at 0.5, 1, 2 hours; p<0.05 and p<0.01; FIG. 3
Method: Ten week-old male Zucker Fatty Rats (fa/fa; Harlan) were housed in a fixed 12-12- hr artificial light-dark cycle, and maintained on a standard diet provided ad libitum. Animals were allowed two days to acclimate in this experimental environment prior to the initiation of the study.
Prior to initiation of treatment, the animals were bled from the tail vein (100-200 μL of whole blood) and serum levels of triglycerides were measured in duplicate (Infinity kits; Sigma, St. Louis, Mo.). Based on these initial measures, animals were sorted into groups with approximately the same average serum triglyceride levels. Once sorted, the animals were housed one per cage and provided standard rodent diet ad libitum.
Treatment groups (n=5/group):
2) Compound 1 in sesame oil (10 mg/kg once daily)
Drug is prepared by mixing Compound 1 in sesame oil, and administered to animals in a volume of 3 ml/kg/dose. Drug is administered by oral gavage once daily.
To monitor the effect of Compound 1, animals were tested in a glucose tolerance test. One day prior to the tolerance test, the animals were fasted overnight (12 hr fast). Animals were then bled at 0 hours to establish baseline glucose levels. […] The animals were then bled 0.5, 1, and 2 hours later and serum glucose levels were measured in duplicate. […]

[2] = test system: Sprague Dawley Rats Maintained on a High Cholesterol Atherogenic Diet; assay: Oral treatment of hypercholesterolemia in Sprague Dawley rats on a high cholesterol atherogenic diet; assay type: in vivo, rat; conditions: 10 mg/kg once daily by oral gavage in sesame oil, five days, p≦0.01
Method: Six week-old male Sprague Dawley rats (HSD, Harlan) were housed in a fixed 12-12- hr artificial light-dark cycle, and maintained on a high cholesterol, atherogenic diet ad libitum (#C13002, Research Diets, NJ).
Animals were maintained on this diet throughout the course of the study.
Following six days of maintenance on the high cholesterol diet, the animals were bled from the tail vein (100-200 μL of whole blood) and serum levels of total cholesterol were measured in duplicate (Infinity Cholesterol Kit; Sigma, St. Louis, Mo.). Based on these initial measures, animals were sorted into groups with approximately the same average serum cholesterol levels. Once sorted, the animals were housed three per cage and maintained on the high cholesterol diet ad libitum.
Treatment groups(n=6/group):
1) Lean Sprague Dawley control (sesame oil)
2) High cholesterol fed control (sesame oil)
3) Compound 1 in sesame oil (10 mg/kg; once daily)
Drug is prepared by mixing Compound 1 in sesame oil, and administered to animals in a volume of 3 ml/kg/dose. Drug is administered by oral gavage daily for five consecutive days.
To monitor the effect of Compound 1, animals were bled from the tail vein five days after commencement of oral treatment. Serum cholesterols were measured in duplicate. […]

In the case of `COc1ccc(/C=N/O)cc1-c1cc2c(cc1C)C(C)(C)CCC2(C)C` [Compound 1, 3-(3,5,5,8,8-Pentamethyl-5,6,7,8-tetrahydro-2-naphthyl)-4-methoxybenzaldehyde oxime], the “glucose clearance rate (glucose tolerance test)” value [1] is reported as “improvement of glucose tolerance; also recorded: significant increase”, the total serum cholesterol ([2]; compared to control animals on the same atherogenic diet, FIG. 1) is reported as “significantly reduced” and the LDL cholesterol levels ([2]; compared to controls, FIG. 2) is reported as “reduced”. It also gave a melting point of 152 °C.
